Experimental data published in PubChem BioAssay (NCI).
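Growth conditions: 96-well plates. Treatment: test compound, 48 hours, 5 concentrations. Analysis: linear interpolation between bracketing concentrations; unreached endpoints set to highest concentration. At the TGI there is no net growth.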

How the values were obtained:
Assay in all cases: DTP human tumour cell line panel, 48 h
UACC-257 melanoma = system: UACC-257 melanoma
HOP-18 NSCLC = system: HOP-18 NSCLC
DMS 114 small cell lung = system: DMS 114 small cell lung
SN12C renal = system: SN12C renal
LXFL 529 NSCLC = system: LXFL 529 NSCLC
KM12 colon = system: KM12 colon
RXF 393 renal = system: RXF 393 renal
CAKI-1 renal = system: CAKI-1 renal
U251 CNS = system: U251 CNS
SF-539 CNS = system: SF-539 CNS
XF 498 CNS = system: XF 498 CNS
LOX IMVI melanoma = system: LOX IMVI melanoma
KM20L2 colon = system: KM20L2 colon
SNB-78 CNS = system: SNB-78 CNS
SF-295 CNS = system: SF-295 CNS
TK-10 renal = system: TK-10 renal
SK-MEL-2 melanoma = system: SK-MEL-2 melanoma
ACHN renal = system: ACHN renal
DLD-1 colon = system: DLD-1 colon
MALME-3M melanoma = system: MALME-3M melanoma
M19-MEL melanoma = system: M19-MEL melanoma
UO-31 renal = system: UO-31 renal
SK-MEL-28 melanoma = system: SK-MEL-28 melanoma
EKVX NSCLC = system: EKVX NSCLC
HT29 colon = system: HT29 colon
SR leukemia = system: SR leukemia
HOP-92 NSCLC = system: HOP-92 NSCLC
HCC-2998 colon = system: HCC-2998 colon
DMS 273 small cell lung = system: DMS 273 small cell lung
NCI-H23 lung = system: NCI-H23 lung
A549 NSCLC = system: A549 NSCLC
NCI-H522 lung = system: NCI-H522 lung
NCI-H460 lung = system: NCI-H460 lung
HOP-62 NSCLC = system: HOP-62 NSCLC
SNB-75 CNS = system: SNB-75 CNS
OVCAR-8 ovarian = system: OVCAR-8 ovarian
SNB-19 CNS = system: SNB-19 CNS
M14 melanoma = system: M14 melanoma
SF-268 CNS = system: SF-268 CNS
OVCAR-5 ovarian = system: OVCAR-5 ovarian
SW-620 colon = system: SW-620 colon
NCI-H226 lung = system: NCI-H226 lung
CCRF-CEM leukemia = system: CCRF-CEM leukemia
SK-OV-3 ovarian = system: SK-OV-3 ovarian
OVCAR-3 ovarian = system: OVCAR-3 ovarian
IGROV1 ovarian = system: IGROV1 ovarian
786-0 renal = system: 786-0 renal
HL-60(TB) leukemia = system: HL-60(TB) leukemia
HCT-15 colon = system: HCT-15 colon
UACC-62 melanoma = system: UACC-62 melanoma
COLO 205 colon = system: COLO 205 colon
A498 renal = system: A498 renal
HCT-116 colon = system: HCT-116 colon
SK-MEL-5 melanoma = system: SK-MEL-5 melanoma
K-562 leukemia = system: K-562 leukemia
OVCAR-4 ovarian = system: OVCAR-4 ovarian
RPMI-8226 leukemia = system: RPMI-8226 leukemia
MOLT-4 leukemia = system: MOLT-4 leukemia

CCC(C)CN1C(=O)NC(Cc2ccccc2)C1=O (stereo not given)
TGI (UACC-257 melanoma): 79.5 µM | TGI (HOP-18 NSCLC): > 100 µM | TGI (DMS 114 small cell lung): > 100 µM | TGI (SN12C renal): > 100 µM | TGI (LXFL 529 NSCLC): > 100 µM | TGI (KM12 colon): > 100 µM | TGI (RXF 393 renal): > 100 µM | TGI (CAKI-1 renal): > 100 µM | TGI (U251 CNS): > 100 µM | TGI (SF-539 CNS): > 100 µM | TGI (XF 498 CNS): > 100 µM | TGI (LOX IMVI melanoma): > 100 µM | TGI (KM20L2 colon): > 100 µM | TGI (SNB-78 CNS): > 100 µM | TGI (SF-295 CNS): > 100 µM | TGI (TK-10 renal): > 100 µM | TGI (SK-MEL-2 melanoma): > 100 µM | TGI (ACHN renal): > 100 µM | TGI (DLD-1 colon): > 100 µM | TGI (MALME-3M melanoma): > 100 µM | TGI (M19-MEL melanoma): > 100 µM | TGI (UO-31 renal): > 100 µM | TGI (SK-MEL-28 melanoma): > 100 µM | TGI (EKVX NSCLC): > 100 µM | TGI (HT29 colon): > 100 µM | TGI (SR leukemia): > 100 µM | TGI (HOP-92 NSCLC): 90.8 µM | TGI (HCC-2998 colon): > 100 µM | TGI (DMS 273 small cell lung): > 100 µM | TGI (NCI-H23 lung): > 100 µM | TGI (A549 NSCLC): > 100 µM | TGI (NCI-H522 lung): > 100 µM | TGI (NCI-H460 lung): > 100 µM | TGI (HOP-62 NSCLC): > 100 µM | TGI (SNB-75 CNS): > 100 µM | TGI (OVCAR-8 ovarian): > 100 µM | TGI (SNB-19 CNS): > 100 µM | TGI (M14 melanoma): > 100 µM | TGI (SF-268 CNS): > 100 µM | TGI (OVCAR-5 ovarian): > 100 µM | TGI (SW-620 colon): > 100 µM | TGI (NCI-H226 lung): > 100 µM

O=C1C2C=CC(n3[nH]c(=O)n(Cc4ccccc4)c3=O)CC2C(=O)N1c1cccc(Cl)c1 (stereo not given)
TGI (UACC-257 melanoma): > 100 µM | TGI (HOP-18 NSCLC): > 100 µM | TGI (DMS 114 small cell lung): > 100 µM | TGI (CCRF-CEM leukemia): > 100 µM | TGI (SN12C renal): > 100 µM | TGI (LXFL 529 NSCLC): > 100 µM | TGI (KM12 colon): > 100 µM | TGI (RXF 393 renal): > 100 µM | TGI (CAKI-1 renal): > 100 µM | TGI (SK-OV-3 ovarian): > 100 µM | TGI (OVCAR-3 ovarian): > 100 µM | TGI (U251 CNS): > 100 µM | TGI (IGROV1 ovarian): > 100 µM | TGI (SF-539 CNS): > 100 µM | TGI (XF 498 CNS): > 100 µM | TGI (LOX IMVI melanoma): > 100 µM | TGI (KM20L2 colon): > 100 µM | TGI (786-0 renal): > 100 µM | TGI (SNB-78 CNS): > 100 µM | TGI (SF-295 CNS): > 100 µM | TGI (TK-10 renal): > 100 µM | TGI (SK-MEL-2 melanoma): > 100 µM | TGI (ACHN renal): > 100 µM | TGI (DLD-1 colon): > 100 µM | TGI (HL-60(TB) leukemia): > 100 µM | TGI (MALME-3M melanoma): > 100 µM | TGI (M19-MEL melanoma): > 100 µM | TGI (UO-31 renal): > 100 µM | TGI (HCT-15 colon): > 100 µM | TGI (SK-MEL-28 melanoma): > 100 µM | TGI (EKVX NSCLC): > 100 µM | TGI (HT29 colon): > 100 µM | TGI (UACC-62 melanoma): > 100 µM | TGI (SR leukemia): > 100 µM | TGI (HOP-92 NSCLC): > 100 µM | TGI (COLO 205 colon): > 100 µM | TGI (A498 renal): > 100 µM | TGI (HCC-2998 colon): > 100 µM | TGI (DMS 273 small cell lung): > 100 µM | TGI (NCI-H23 lung): > 100 µM | TGI (A549 NSCLC): > 100 µM | TGI (NCI-H522 lung): > 100 µM | TGI (HCT-116 colon): > 100 µM | TGI (NCI-H460 lung): > 100 µM | TGI (HOP-62 NSCLC): > 100 µM | TGI (SNB-75 CNS): > 100 µM | TGI (OVCAR-8 ovarian): > 100 µM | TGI (SK-MEL-5 melanoma): > 100 µM | TGI (SNB-19 CNS): > 100 µM | TGI (M14 melanoma): > 100 µM | TGI (K-562 leukemia): > 100 µM | TGI (SF-268 CNS): > 100 µM | TGI (OVCAR-5 ovarian): > 100 µM | TGI (OVCAR-4 ovarian): > 100 µM | TGI (SW-620 colon): > 100 µM | TGI (NCI-H226 lung): > 100 µM

COc1ccc(S(=O)(=O)N/N=C\c2cc([N+](=O)[O-])cc(I)c2O)c(OC)c1OC
TGI (UACC-257 melanoma): 75.5 µM | TGI (HOP-18 NSCLC): 63.5 µM | TGI (DMS 114 small cell lung): 64.6 µM | TGI (CCRF-CEM leukemia): 59.1 µM | TGI (SN12C renal): > 100 µM | TGI (KM12 colon): > 100 µM | TGI (RXF 393 renal): 54.6 µM | TGI (CAKI-1 renal): 67.4 µM | TGI (SK-OV-3 ovarian): 64 µM | TGI (OVCAR-3 ovarian): 62.8 µM | TGI (U251 CNS): 66 µM | TGI (IGROV1 ovarian): > 100 µM | TGI (XF 498 CNS): 48 µM | TGI (LOX IMVI melanoma): 92.4 µM | TGI (KM20L2 colon): > 100 µM | TGI (786-0 renal): 61.4 µM | TGI (SNB-78 CNS): 74 µM | TGI (SF-295 CNS): > 100 µM | TGI (TK-10 renal): > 100 µM | TGI (SK-MEL-2 melanoma): 45.3 µM | TGI (ACHN renal): 92.1 µM | TGI (DLD-1 colon): 95.1 µM | TGI (HL-60(TB) leukemia): 71.4 µM | TGI (MALME-3M melanoma): 85.2 µM | TGI (M19-MEL melanoma): 87.2 µM | TGI (UO-31 renal): 40.2 µM | TGI (HCT-15 colon): 55.8 µM | TGI (SK-MEL-28 melanoma): 64.7 µM | TGI (EKVX NSCLC): 80.7 µM | TGI (HT29 colon): > 100 µM | TGI (UACC-62 melanoma): 45.4 µM | TGI (HOP-92 NSCLC): 37 µM | TGI (COLO 205 colon): 45 µM | TGI (A498 renal): 83 µM | TGI (HCC-2998 colon): 86.8 µM | TGI (RPMI-8226 leukemia): 71.6 µM | TGI (DMS 273 small cell lung): > 100 µM | TGI (MOLT-4 leukemia): 64.9 µM | TGI (NCI-H23 lung): 67.1 µM | TGI (A549 NSCLC): > 100 µM | TGI (NCI-H460 lung): > 100 µM | TGI (SNB-75 CNS): 70.1 µM | TGI (OVCAR-8 ovarian): > 100 µM | TGI (SK-MEL-5 melanoma): 45.5 µM | TGI (SNB-19 CNS): 76.3 µM | TGI (M14 melanoma): 77.6 µM | TGI (K-562 leukemia): > 100 µM | TGI (SF-268 CNS): 75 µM | TGI (OVCAR-5 ovarian): > 100 µM | TGI (OVCAR-4 ovarian): 72.7 µM | TGI (SW-620 colon): > 100 µM | TGI (NCI-H226 lung): 41.9 µM
